Laboratory results reported in patent publication US20210395327A1, “Growth Hormone-Releasing Hormone Antagonists and Uses Thereof” (United States Government As Represented By The Department …, priority 2019, published 2021).
Non-standard residues stand in square brackets, D forms with d. Residues, ends and D or L forms follow the SMILES beside them. *: point of attachment. Phenylacetyl(2,3,4,5,6-F5) = O=C(Cc1c(F)c(F)c(F)c(F)c1F)*; Phe(F5) = N[C@@H](Cc1c(F)c(F)c(F)c(F)c1F)C(=O)O; hArg = N=C(N)NCCCC[C@H](N)C(=O)O; 12Ado = NCCCCCCCCCCCC(=O)O; Nle = CCCC[C@H](N)C(=O)O; Orn = NCCC[C@H](N)C(=O)O; Abu = CC[C@H](N)C(=O)O; PhAc = O=C(Cc1ccccc1)*

Assays:
[1] = tested on: KATOIII stomach cancer cells; experiment: In vitro cell viability, KATOIII; assay type: cell-based, human; settings: antagonist 5 μM for 72 h, cell proliferation assay; MIA602 = 1
Procedure, shortened: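 Cells grown to ~60% confluence, serum-starved 24 h in 0.5% FBS, then treated with antagonists at 1, 2.5 or 5 μM or vehicle (0.1% DMSO) in quintuplicate for 72 h, medium replaced every 48 h. Viability read by MTS-type CellTiter 96 AQueous One assay; expressed as inhibitory potency relative to MIA602.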

[2] = tested on: J82 urothelial cancer cells; experiment: In vitro cell viability, J82; assay type: cell-based, human; settings: antagonist 5 μM for 72 h, cell proliferation assay; MIA602 = 1
Protocol: (§1) The inhibitory effects of the various synthesized GHRH antagonists were tested in cell proliferation assays in various human cancer cell lines including stomach cancer (KATOIII, N87), colon cancer (HT-29), urothelial cancer (J82, RT4), pancreatic cancer (PANC-1, CFPAC-1), prostatic cancer (PC3), breast cancer (MX-1, HCC1806), ovarian cancer (SK-OV-3, OVCAR-3) and lung cancer (HCC827, H460).
(§2) Cell culture. Human cancer cell lines including pancreatic (PANC-1 and CFPAC-1), lung (HCC827 and H460), stomach (NCI-N87 and KATOIII), urothelial (J82, RT4), prostatic (PC3), breast (MX-1 and HCC 1806), colorectal (HT-29), and ovarian (SK-OV-3 and OVCAR-3) were obtained from the American Type Culture Collection (ATCC) and cultured at 37° C. in a humidified 95% air/5% CO2 atmosphere in the medium recommended by ATCC.
(§3) In vitro cell viability. Cell viability was analyzed as follows: cancer cells including pancreatic (PANC-1 and CFPAC-1), lung (HCC827 and H460), stomach (NCI-N87 and KATOIII), urothelial (J82, RT4), prostatic (PC3) and breast (MX-1 and HCC 1806), colorectal (HT-29) and ovarian (SK-OV-3 and OVCAR-3) were grown on 96 well plates to ˜60% confluence, the cells were starved for 24 h in culture medium containing 0.5% FBS. Cells were then treated with GHRH antagonists MIA602 AVR compounds at concentrations of 1, 2.5 or 5 μM, or vehicle (0.1% DMSO) in quintuplicates for 72 hours. The medium was replaced every 48 hours. Cell viability was measured using CellTiter 96 aqueous one solution kit (Promega). Inhibitory effects of tested AVR compounds in comparison to that of MIA602 are presented as inhibitory potency.
(§4) Inhibitory effects of selected AVR compounds in comparison to that of MIA602 are presented as inhibitory potency (e.g., percentage of inhibition). […] The cell lines tested including lung cancer HCC827 (FIG. 2A), pancreatic cancer CFPAC-1 (FIG. 2B), stomach cancer N87 (FIG. 2C), colon cancer HT-29 (FIG. 2D), breast cancers MX-1 and HCC1806 (FIGS. 2 E, F). Based on the results of cell proliferation assay after cancer cells were treated with antagonist at concentration of 5 μM for 72H, the relative inhibitory potency of AVR antagonists in comparison to MIA-602 is summarized in Table 3 A and B. Over 60 AVR compounds were tested in 12 cancer cell lines.

[3] = tested on: PANC-1 pancreatic cancer cells; experiment: In vitro cell viability, PANC-1; assay type: cell-based, human; settings: antagonist 5 μM for 72 h, cell proliferation assay; MIA602 = 1
Protocol: as §1, §2, §3, §4

[4] = tested on: lung cancer H460 xenograft; experiment: Xenograft tumor growth in nude mice, H460; assay type: in vivo; settings: Table 4H, Lung Ca H460, 4 weeks, 5 μg/day s.c.
Protocol: (§5) The peptides' activity was compared with GHRH antagonist MIA-602. All statistical analyzses were performed from comparing GHRA antagonists to non-treated tumor (control).
(§6) Peptides and chemicals. GHRH antagonists MIA-602 and AVR-GHRH antagonists (see Table 2 above) were synthesized by solid phase methods and purified by HPLC. The peptides were dissolved in DMSO and further diluted in 10% 1,2-propanediol. The final concentration of peptides was 50 µg/ml in 10% 1,2-propanediol containing 0.1% of DMSO.
as §2, with “(NCI-N87), prostate” for “(NCI-N87 and KATOIII), urothelial (J82, RT4), prostatic”, “brest” for “breast”, “HCC-1806),” for “HCC 1806),”
(§7) Xenograft models of human cancers in nude mice. Female athymic (NCr nu/nu) nude mice, 5- to 6-weeks-old, obtained from the Envigo labs (Tampa, Fla.), were housed in laminar airflow cabinets under pathogen-free conditions with a 12-h light/12-h dark schedule, and were fed autoclaved standard chow and water. To generate mice with xenografted tumors, tumor xenografts were initiated by subcutaneous (s.c.) injection of 107 human cancer cells into female nude mice. After about 4 weeks the resulting tumors were dissected and collected after removing necrosis tissues. The tumors were then cut into particles with size of 3 mm3 and transplanted s.c. by trocar needle into experimental animals. When tumors grew to the size of 50-60 mm3 (by volume), mice were randomized into groups and treated daily for 4-8 weeks by subcutaneous administration of 5 μg of GHRH antagonists MIA-602 or AVR-compounds (2-10 μg as indicated), or vehicle solutions (0.1% DMSO in 10% 1,2-propanediol) respectively. Tumor sizes were measured weekly.
(§8) Statistical analysis. One-way ANOVA followed by Bonferroni comparison were performed. Data are expressed as Mean±SEM. To determine statistical significance between animal groups, two-tailed Student's t-test was conducted. Differences were considered significant when p<0.05.
(§9) Results. […] FIG. 1A-N represents in vivo inhibition of tumor growth during the treatment with GHRH antagonist MIA-602 and selected AVR antagonists in nude mice xenografted with various human tumors including pancreatic cancer PANC-1 (FIG. 1A) and CFPAC-1 (FIG. 1I); lung cancer HCC827 (FIGS. 1B, C) and H460 (FIG. 1H); stomach cancer N87 (FIGS. 1D-F); colon cancer HT-29 (FIG. 1G); breast cancer MX-1 and HCC-1806 (FIGS. 1J, K); ovarian cancer SK-OV-3 and OVACAR-3 (FIGS. 1 L, M) and prostate cancer PC3 (FIG. 1N). See also Table 5.

[5] = tested on: ovarian cancer SK-OV-3 xenograft; experiment: Xenograft tumor growth in nude mice, SK-OV-3; assay type: in vivo; settings: Table 4L, Ovarian Ca SK-OV-3, 7 weeks, 5 μg/day s.c.
Protocol: as §5, §6
as §2, with “(NCI-N87), prostate” for “(NCI-N87 and KATOIII), urothelial (J82, RT4), prostatic”, “brest” for “breast”, “HCC-1806),” for “HCC 1806),”
as §7, §8, §9

[6] = tested on: colon cancer HT-29 xenograft; experiment: Xenograft tumor growth in nude mice, HT-29; assay type: in vivo; settings: Table 4G, Colon Ca HT-29, 6 weeks, 5 μg/day s.c.
Protocol: as §5, §6
as §2, with “(NCI-N87), prostate” for “(NCI-N87 and KATOIII), urothelial (J82, RT4), prostatic”, “brest” for “breast”, “HCC-1806),” for “HCC 1806),”
as §7, §8, §9

Row | Structure (SMILES) | relative inhibitory potency in comparison to MIA-602, Stomach KATOIII [1] | relative inhibitory potency in comparison to MIA-602, Urothelial J82 [2] | relative inhibitory potency in comparison to MIA-602, Pancreatic Panc-1 [3] | Tumor Growth % [4] | % Inhibition ([4]; vs control) | Tumor Size (mm3) [5] | % Inhibition ([5]; vs control) | Tumor Size (mm^3) [6] | % Inhibition ([6]; vs control)
1 | CCCC[C@H](NC(=O)[C@@H](NC(=O)[C@H](CC(=O)O)NC(=O)[C@H](CCC(N)=O)NC(=O)[C@H](CC(C)C)NC(=O)[C@H](CC(C)C)NC(=O)[C@H](CCCCN)NC(=O)[C@H](CCCNC(=N)N)NC(=O)[C@H](C)NC(=O)[C@H](CO)NC(=O)[C@H](CC(C)C)NC(=O)[C@H](CCC(N)=O)NC(=O)[C@H](CC)NC(=O)[C@H](CC(C)C)NC(=O)[C@@H](NC(=O)[C@H](CCCCN)NC(=O)[C@H](CCCNC(=N)N)NC(=O)[C@H](Cc1ccc(OC)cc1)NC(=O)[C@H](CCCCNC(=N)N)NC(=O)[C@H](C)NC(=O)[C@@H](NC(=O)[C@H](Cc1c(F)c(F)c(F)c(F)c1F)NC(=O)[C@@H](NC(=O)[C@H](C)NC(=O)[C@H](CC(=O)O)NC(=O)[C@@H](CCCNC(=N)N)NC(=O)[C@H](Cc1ccc(O)cc1)NC(=O)CCCCCCCCCCCNC(=O)Cc1c(F)c(F)c(F)c(F)c1F)[C@@H](C)CC)[C@@H](C)O)C(C)C)[C@@H](C)CC)C(=O)N[C@H](CCCNC(=N)N)C(=O)N[C@@H](CCCCNC(=N)N)C(=O)NC [AVR-235] ({Phenylacetyl(2,3,4,5,6-F5)-12Ado}-Y[dR]DAI[Phe(F5)]TA[hArg]Y(Me)RKVL[Abu]QLSARKLLQDI[Nle][dR][hArg]-NHMe) | 1.220 | 1.518 | 1.139 |  |  |  |  |  | 
2 | CCCC[C@H](NC(=O)[C@@H](NC(=O)[C@H](CC(=O)O)NC(=O)[C@H](CCC(N)=O)NC(=O)[C@H](CC(C)C)NC(=O)[C@H](CC(C)C)NC(=O)[C@H](CCCN)NC(=O)[C@H](Cc1c[nH]cn1)NC(=O)[C@H](C)NC(=O)[C@H](CO)NC(=O)[C@H](CC(C)C)NC(=O)[C@H](CCC(N)=O)NC(=O)[C@H](CC)NC(=O)[C@H](CC(C)C)NC(=O)[C@@H](NC(=O)[C@H](CCCN)NC(=O)[C@H](Cc1c[nH]cn1)NC(=O)[C@H](Cc1ccc(OC)cc1)NC(=O)[C@H](CCCCNC(=N)N)NC(=O)[C@H](C)NC(=O)[C@@H](NC(=O)[C@H](Cc1c(F)c(F)c(F)c(F)c1F)NC(=O)[C@@H](NC(=O)[C@H](C)NC(=O)[C@H](CC(=O)O)NC(=O)[C@@H](CCCNC(=N)N)NC(=O)[C@H](Cc1ccc(O)cc1)NC(=O)CCCCCCCCCCCNC(=O)Cc1ccccc1)[C@@H](C)CC)[C@@H](C)O)C(C)C)[C@@H](C)CC)C(=O)N[C@H](CCCNC(=N)N)C(=O)N[C@@H](CCCCNC(=N)N)C(N)=O [MIA-602, PhAC-Ada, Tyr D-Arg, Asp, Ala, Ile, 5FPhe, Thr, Ala, Har, Tyr(Me), His, Orn, Val, Leu, Abu, Gin, Leu, Ser, Ala, His, Om, Leu, Leu, Gin, Asp, Ile; Nle, D-Arg, Har NH2, reference compound] ({PhAc-12Ado}-Y[dR]DAI[Phe(F5)]TA[hArg]Y(Me)H[Orn]VL[Abu]QLSAH[Orn]LLQDI[Nle][dR][hArg]-NH2) | 1 | 1 | 1 | 1602.7% | 52.6% | 810.1 mm3 | 38.0% | 582.10 mm^3 | 16.5%
